Experimental data published in ChEMBL document CHEMBL1201862, “PubChem BioAssay data set” (2004).
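Five concentrations, 48 hours, 96-well plates. GI50: concentration for 50% inhibition of growth.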 Calls of active or inactive are those of the source. No stated cut-off is given here; in the data, active = GI50 up to about 1.1 µM and inactive = higher.

Key:
Test in all cases: growth of human tumour cells (NCI), 48 h
[1] = test system: 786-0
[2] = test system: A498
[3] = test system: A549
[4] = test system: ACHN
[5] = test system: BT-549
[6] = test system: CAKI-1
[7] = test system: CCRF-CEM
[8] = test system: COLO 205
[9] = test system: DU-145
[10] = test system: EKVX
[11] = test system: HCT-116
[12] = test system: HCT-15
[13] = test system: HL-60
[14] = test system: HOP-62
[15] = test system: HOP-92
[16] = test system: HT-29
[17] = test system: Hs-578T
[18] = test system: IGROV-1
[19] = test system: K562
[20] = test system: KM12
[21] = test system: LOX IMVI
[22] = test system: M14
[23] = test system: MCF7
[24] = test system: MDA-MB-231
[25] = test system: MDA-MB-435
[26] = test system: MDA-N
[27] = test system: MOLT-4
[28] = test system: Malme-3M
[29] = test system: NCI-H226
[30] = test system: NCI-H23
[31] = test system: NCI-H460
[32] = test system: NCI-H522
[33] = test system: NCI/ADR-RES
[34] = test system: OVCAR-3
[35] = test system: OVCAR-4
[36] = test system: OVCAR-5
[37] = test system: OVCAR-8
[38] = test system: PC-3
[39] = test system: RPMI-8226
[40] = test system: RXF 393
[41] = test system: SF-295
[42] = test system: SF-539
[43] = test system: SK-MEL-28
[44] = test system: SK-MEL-2
[45] = test system: SK-MEL-5
[46] = test system: SK-OV-3
[47] = test system: SN12C
[48] = test system: SNB-19
[49] = test system: SNB-75
[50] = test system: SR
[51] = test system: SW-620
[52] = test system: T47D
[53] = test system: TK-10
[54] = test system: U-251
[55] = test system: UACC-257
[56] = test system: UACC-62
[57] = test system: UO-31
[58] = test system: SF-268

In the case of `CCOC(=O)c1sc(N)nc1N1CCCC1`, the GI50 [1] is reported as > 100 µM (inactive), the GI50 [2] is reported as > 100 µM (inactive) and the GI50 [3] is reported as > 100 µM (inactive). The GI50 [4] was > 100 µM (inactive), the GI50 [5] was > 100 µM (inactive) and the GI50 [6] was > 100 µM (inactive). The GI50 [7] was > 100 µM (inactive), the GI50 [8] was > 100 µM (inactive) and the GI50 [9] was > 100 µM (inactive). For the same compound, the GI50 [10] was > 100 µM (inactive), the GI50 [11] was > 100 µM (inactive) and the GI50 [12] was > 100000 nM. For the same compound, the GI50 [13] was > 100 µM (inactive), the GI50 [14] was > 100 µM (inactive) and the GI50 [15] was > 100 µM (inactive). The GI50 [16] was > 100 µM (inactive), the GI50 [17] was > 100 µM (inactive) and the GI50 [18] was > 100 µM (inactive). The GI50 [19] was > 100 µM (inactive), the GI50 [20] was > 100 µM (inactive) and the GI50 [21] was > 100 µM (inactive). For the same compound, the GI50 [22] was > 100 µM (inactive), the GI50 [23] was > 100 µM (inactive) and the GI50 [24] was > 100 µM (inactive). The GI50 [25] was > 100 µM (inactive), the GI50 [26] was > 100 µM (inactive) and the GI50 [27] was > 100 µM (inactive). For the same compound, the GI50 [28] was > 100 µM (inactive), the GI50 [29] was > 100 µM (inactive) and the GI50 [30] was > 100 µM (inactive). For the same compound, the GI50 [31] was > 100 µM (inactive), the GI50 [32] was > 100 µM (inactive) and the GI50 [33] was > 100 µM (inactive). For the same compound, the GI50 [34] was > 100 µM (inactive), the GI50 [35] was > 100 µM (inactive) and the GI50 [36] was > 100 µM (inactive). The GI50 [37] was > 100 µM (inactive), the GI50 [38] was > 100 µM (inactive) and the GI50 [39] was > 100 µM (inactive). The GI50 [40] was 942 nM (active), the GI50 [41] was > 100 µM (inactive) and the GI50 [42] was > 100 µM (inactive). For the same compound, the GI50 [43] was > 100 µM (inactive), the GI50 [44] was > 100 µM (inactive) and the GI50 [45] was > 100 µM (inactive). The GI50 [46] was > 100 µM (inactive), the GI50 [47] was > 100 µM (inactive) and the GI50 [48] was > 100 µM (inactive). For the same compound, the GI50 [49] was > 100 µM (inactive), the GI50 [50] was > 100 µM (inactive) and the GI50 [51] was > 100 µM (inactive). For the same compound, the GI50 [52] was > 100 µM (inactive), the GI50 [53] was > 100 µM (inactive) and the GI50 [54] was > 100 µM (inactive). The GI50 [55] was > 100 µM (inactive), the GI50 [56] was > 100 µM (inactive) and the GI50 [57] was > 100 µM (inactive).
For `Nc1cc2c(nc3c4ccccc4c(N)cc3[n+]2-c2cccc3ccccc23)c2ccccc12.Nc1cc2c(nc3c4ccccc4ccc3[n+]2-c2cccc3ccccc23)c2ccccc12`, the GI50 [1] was 1.21 µM (inactive), the GI50 [2] was 3.48 µM (inactive) and the GI50 [3] was 1.39 µM (inactive). The GI50 [4] was 2.18 µM (inactive), the GI50 [5] was 4.11 µM (inactive) and the GI50 [6] was 3.66 µM (inactive). For the same compound, the GI50 [7] was 0.229 µM (active), the GI50 [8] was 1.93 µM (inactive) and the GI50 [9] was 3.03 µM (inactive). The GI50 [10] was 1.61 µM (inactive), the GI50 [11] was 1.67 µM (inactive) and the GI50 [12] was 2970 nM. For the same compound, the GI50 [13] was 1.41 µM (inactive), the GI50 [14] was 2.81 µM (inactive) and the GI50 [15] was 1.2 µM (inactive). The GI50 [16] was 1.36 µM (inactive), the GI50 [17] was 1.17 µM (inactive) and the GI50 [18] was 1.71 µM (inactive). For the same compound, the GI50 [19] was 0.448 µM (active), the GI50 [20] was 1.31 µM (inactive) and the GI50 [21] was 1.97 µM (inactive). For the same compound, the GI50 [22] was 2 µM (inactive), the GI50 [23] was 0.507 µM (active) and the GI50 [24] was 0.276 µM (active). For the same compound, the GI50 [25] was 1.45 µM (inactive), the GI50 [26] was 1.87 µM (inactive) and the GI50 [27] was 0.75 µM (active). The GI50 [28] was 1.6 µM (inactive), the GI50 [29] was 12.2 µM (inactive) and the GI50 [30] was 1.15 µM (inactive). The GI50 [31] was 0.377 µM (active), the GI50 [32] was 1.25 µM (inactive) and the GI50 [33] was 8.18 µM (inactive). For the same compound, the GI50 [34] was 0.593 µM (active), the GI50 [35] was 1.71 µM (inactive) and the GI50 [36] was 7.28 µM (inactive). For the same compound, the GI50 [37] was 0.714 µM (active), the GI50 [38] was 0.465 µM (active) and the GI50 [39] was 0.146 µM (active). The GI50 [40] was 2450 nM (inactive), the GI50 [58] was 3.37 µM (inactive) and the GI50 [41] was 2.2 µM (inactive). For the same compound, the GI50 [42] was 7.74 µM (inactive), the GI50 [43] was 7.06 µM (inactive) and the GI50 [44] was 1.57 µM (inactive). The GI50 [45] was 1.7 µM (inactive), the GI50 [46] was 4.32 µM (inactive) and the GI50 [47] was 2.49 µM (inactive). For the same compound, the GI50 [48] was 4.56 µM (inactive), the GI50 [49] was 1.68 µM (inactive) and the GI50 [50] was 1.24 µM (inactive). The GI50 [51] was 1.55 µM (inactive), the GI50 [52] was 0.687 µM (active) and the GI50 [53] was 0.893 µM (active). For the same compound, the GI50 [54] was 0.341 µM (active), the GI50 [55] was 1.15 µM (inactive) and the GI50 [56] was 7.89 µM (inactive). The GI50 [57] was 2.59 µM (inactive).
